The record followed here is ChEMBL document CHEMBL1128795, “N-(Quinuclidin-3-yl)-2-(1-methyl-1H-indol-3-yl)-2-oxo-acetamide: a high affinity 5-HT3 receptor partial agonist” (Bioorg Med Chem Lett, 1995).

Experiment [1] concerns the target 5-hydroxytryptamine receptor 1D (Homo sapiens, UniProt P28221). Briefly: Binding affinity against 5-Hydroxytryptamine 1D receptor.
Experiment [2] addresses T1, Serotonin 3 (5-HT3) receptor (Rattus norvegicus, UniProt P35563+Q9JJ16).
T1 sequence (P35563 whole entry): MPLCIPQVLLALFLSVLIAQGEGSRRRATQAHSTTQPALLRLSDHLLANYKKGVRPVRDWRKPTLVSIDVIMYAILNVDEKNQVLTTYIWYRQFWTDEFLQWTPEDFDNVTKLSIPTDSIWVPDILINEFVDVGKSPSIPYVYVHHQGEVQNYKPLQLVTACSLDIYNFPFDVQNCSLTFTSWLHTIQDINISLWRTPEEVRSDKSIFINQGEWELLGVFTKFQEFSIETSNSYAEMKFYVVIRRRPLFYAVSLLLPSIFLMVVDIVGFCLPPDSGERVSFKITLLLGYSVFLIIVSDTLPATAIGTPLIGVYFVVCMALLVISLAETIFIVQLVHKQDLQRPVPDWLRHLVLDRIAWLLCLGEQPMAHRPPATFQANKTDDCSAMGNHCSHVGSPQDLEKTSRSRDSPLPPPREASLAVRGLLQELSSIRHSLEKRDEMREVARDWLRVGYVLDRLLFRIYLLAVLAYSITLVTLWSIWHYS
T1 sequence (Q9JJ16 whole entry): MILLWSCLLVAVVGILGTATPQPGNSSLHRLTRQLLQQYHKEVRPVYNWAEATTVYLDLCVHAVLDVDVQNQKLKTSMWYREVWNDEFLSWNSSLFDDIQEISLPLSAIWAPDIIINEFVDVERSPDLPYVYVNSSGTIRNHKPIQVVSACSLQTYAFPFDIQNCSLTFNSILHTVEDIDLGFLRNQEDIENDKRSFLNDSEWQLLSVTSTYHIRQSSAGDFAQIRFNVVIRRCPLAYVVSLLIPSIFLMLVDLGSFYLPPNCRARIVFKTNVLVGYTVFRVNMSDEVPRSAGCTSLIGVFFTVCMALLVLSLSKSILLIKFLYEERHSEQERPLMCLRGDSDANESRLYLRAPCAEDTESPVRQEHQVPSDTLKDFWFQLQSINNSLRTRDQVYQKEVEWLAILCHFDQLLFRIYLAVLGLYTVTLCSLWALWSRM
The experiment in a line: Binding affinity against 5-Hydroxytryptamine 3 receptor. In kind it is protein-complex assay.

Experiment [3] addresses T2, Alpha-1A adrenergic receptor (Homo sapiens, UniProt P35348).
T2 sequence (P35348 whole entry): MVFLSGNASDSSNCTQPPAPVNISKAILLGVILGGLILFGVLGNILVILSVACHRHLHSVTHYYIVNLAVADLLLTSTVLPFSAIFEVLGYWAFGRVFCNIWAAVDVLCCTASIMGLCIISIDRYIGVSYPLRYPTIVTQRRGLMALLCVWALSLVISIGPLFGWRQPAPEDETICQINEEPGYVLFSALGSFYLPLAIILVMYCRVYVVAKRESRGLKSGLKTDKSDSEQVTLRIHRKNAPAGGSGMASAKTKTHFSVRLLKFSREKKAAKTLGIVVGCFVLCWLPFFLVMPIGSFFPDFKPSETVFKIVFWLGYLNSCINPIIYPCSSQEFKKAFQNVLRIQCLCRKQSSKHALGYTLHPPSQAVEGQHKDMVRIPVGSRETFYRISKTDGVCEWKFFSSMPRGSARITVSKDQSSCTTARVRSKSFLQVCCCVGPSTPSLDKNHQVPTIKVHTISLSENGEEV
Briefly: Binding affinity against Alpha-1A adrenergic receptor.

For experiment [4], the target named is Beta-2 adrenergic receptor (Homo sapiens, UniProt P07550). The experiment in a line: Binding affinity against Beta-2 adrenergic receptor.
Chain of Beta-2 adrenergic receptor (P07550 whole entry): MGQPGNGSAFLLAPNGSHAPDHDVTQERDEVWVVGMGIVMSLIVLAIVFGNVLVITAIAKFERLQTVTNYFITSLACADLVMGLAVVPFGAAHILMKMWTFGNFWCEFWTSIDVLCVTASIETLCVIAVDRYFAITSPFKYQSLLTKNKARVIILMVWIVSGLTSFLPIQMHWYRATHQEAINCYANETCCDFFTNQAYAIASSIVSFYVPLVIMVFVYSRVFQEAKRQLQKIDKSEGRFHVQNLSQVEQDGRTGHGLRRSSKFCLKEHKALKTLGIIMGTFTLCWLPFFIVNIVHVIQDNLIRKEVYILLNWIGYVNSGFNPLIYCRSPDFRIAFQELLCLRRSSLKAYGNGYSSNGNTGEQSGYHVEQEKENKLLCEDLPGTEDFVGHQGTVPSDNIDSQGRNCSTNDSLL
In experiment [5] the target is D(1A) dopamine receptor (Homo sapiens, UniProt P21728). The experiment in a line: Binding affinity against Dopamine D1 receptor.
Chain of D(1A) dopamine receptor (P21728 whole entry): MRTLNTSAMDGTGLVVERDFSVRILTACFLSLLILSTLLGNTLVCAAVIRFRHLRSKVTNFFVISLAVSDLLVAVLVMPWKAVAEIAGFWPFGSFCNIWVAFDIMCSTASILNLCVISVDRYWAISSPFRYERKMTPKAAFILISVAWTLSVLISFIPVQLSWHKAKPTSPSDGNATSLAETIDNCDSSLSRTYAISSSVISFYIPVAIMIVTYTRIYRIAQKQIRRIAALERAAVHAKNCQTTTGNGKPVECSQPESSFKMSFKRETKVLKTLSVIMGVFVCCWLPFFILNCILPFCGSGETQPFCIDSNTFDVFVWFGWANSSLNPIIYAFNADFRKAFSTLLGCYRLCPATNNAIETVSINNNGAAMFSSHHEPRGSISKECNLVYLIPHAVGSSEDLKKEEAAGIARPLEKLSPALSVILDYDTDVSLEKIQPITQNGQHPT
Experiment [6] concerns the target Muscarinic acetylcholine receptor M3 (Homo sapiens, UniProt P20309). Briefly: Binding affinity against Muscarinic M3 receptor.
The target of experiment [7] is T3, Muscarinic acetylcholine receptor M2 (Homo sapiens, UniProt P08172).
T3 sequence (P08172 whole entry): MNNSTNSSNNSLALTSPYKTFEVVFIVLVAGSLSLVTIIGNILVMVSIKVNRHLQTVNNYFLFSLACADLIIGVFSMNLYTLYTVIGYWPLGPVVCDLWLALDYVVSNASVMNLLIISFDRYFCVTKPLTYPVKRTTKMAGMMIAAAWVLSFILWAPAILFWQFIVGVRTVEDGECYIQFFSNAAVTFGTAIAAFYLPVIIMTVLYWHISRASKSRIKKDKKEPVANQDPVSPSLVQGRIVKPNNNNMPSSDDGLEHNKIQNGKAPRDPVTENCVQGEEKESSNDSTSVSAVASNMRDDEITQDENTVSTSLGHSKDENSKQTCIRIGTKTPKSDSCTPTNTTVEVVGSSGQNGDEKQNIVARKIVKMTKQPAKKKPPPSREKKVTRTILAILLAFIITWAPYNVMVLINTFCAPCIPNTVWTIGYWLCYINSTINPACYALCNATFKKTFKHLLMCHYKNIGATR
Briefly: Binding affinity against Muscarinic M2 receptor.

Experiment [8] addresses T4, Muscarinic acetylcholine receptor M1 (Homo sapiens, UniProt P11229).
T4 sequence (P11229 whole entry): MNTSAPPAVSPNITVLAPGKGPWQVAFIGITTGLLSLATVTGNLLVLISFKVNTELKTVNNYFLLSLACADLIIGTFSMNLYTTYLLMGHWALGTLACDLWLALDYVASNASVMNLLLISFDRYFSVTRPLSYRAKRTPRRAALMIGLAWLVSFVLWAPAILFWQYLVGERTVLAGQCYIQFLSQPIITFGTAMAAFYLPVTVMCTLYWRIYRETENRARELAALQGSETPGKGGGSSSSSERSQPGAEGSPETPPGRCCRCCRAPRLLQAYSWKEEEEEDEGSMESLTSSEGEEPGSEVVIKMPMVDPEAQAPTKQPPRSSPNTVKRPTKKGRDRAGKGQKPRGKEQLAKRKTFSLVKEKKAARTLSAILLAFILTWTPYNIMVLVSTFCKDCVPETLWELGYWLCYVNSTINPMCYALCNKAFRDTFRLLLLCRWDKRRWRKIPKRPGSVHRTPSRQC
The experiment in a line: Binding affinity against Muscarinic M1 receptor.

Experiment [9] deals with T5, Serotonin 3 (5-HT3) receptor (Rattus norvegicus) (UniProt P35563+Q9JJ16). The experiment in a line: Tested for % decrease in heart rate relative to pre-dose control against 2-methyl-5-HT induced bradycardia (von Bezold-Jarisch (B-J) reflex) in anesthetized rats. In kind it is functional. Set-up: scale not given: the % may be the effect or the level left.
The target of experiment [10] is T5, Serotonin 3 (5-HT3) receptor (Rattus norvegicus). The experiment in a line: Agonist activity against 2-methyl-5-HT induced bradycardia (von Bezold-Jarisch (B-J) reflex) in anesthetized rats. Type of experiment: functional.
The target in experiment [11] is D(2) dopamine receptor (Homo sapiens, UniProt P14416). Briefly: Binding affinity against Dopamine D2 receptor.
Chain of D(2) dopamine receptor (P14416 whole entry): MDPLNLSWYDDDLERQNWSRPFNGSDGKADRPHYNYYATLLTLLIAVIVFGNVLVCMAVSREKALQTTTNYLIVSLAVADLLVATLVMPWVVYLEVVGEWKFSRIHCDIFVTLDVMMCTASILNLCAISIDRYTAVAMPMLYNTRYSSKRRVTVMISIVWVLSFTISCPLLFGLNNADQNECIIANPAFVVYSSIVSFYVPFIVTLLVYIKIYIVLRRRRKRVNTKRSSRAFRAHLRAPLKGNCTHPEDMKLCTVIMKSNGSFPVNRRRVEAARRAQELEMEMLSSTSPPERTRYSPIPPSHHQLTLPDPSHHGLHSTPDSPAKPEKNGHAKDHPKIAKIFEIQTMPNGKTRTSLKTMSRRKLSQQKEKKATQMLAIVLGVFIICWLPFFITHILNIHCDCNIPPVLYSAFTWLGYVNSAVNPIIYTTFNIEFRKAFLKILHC

Molecules are shown by their SMILES.

Chain of 5-hydroxytryptamine receptor 1D (P28221 whole entry): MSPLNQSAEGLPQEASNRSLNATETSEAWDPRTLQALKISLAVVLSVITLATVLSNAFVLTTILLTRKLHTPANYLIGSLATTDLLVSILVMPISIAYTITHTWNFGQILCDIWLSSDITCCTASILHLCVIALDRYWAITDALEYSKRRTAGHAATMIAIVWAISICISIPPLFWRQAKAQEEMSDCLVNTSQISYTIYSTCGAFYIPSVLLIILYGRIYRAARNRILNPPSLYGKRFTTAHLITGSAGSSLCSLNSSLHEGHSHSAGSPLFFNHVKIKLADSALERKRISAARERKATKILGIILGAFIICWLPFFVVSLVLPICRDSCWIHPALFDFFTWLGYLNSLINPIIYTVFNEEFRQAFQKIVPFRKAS
Chain of Muscarinic acetylcholine receptor M3 (P20309 whole entry): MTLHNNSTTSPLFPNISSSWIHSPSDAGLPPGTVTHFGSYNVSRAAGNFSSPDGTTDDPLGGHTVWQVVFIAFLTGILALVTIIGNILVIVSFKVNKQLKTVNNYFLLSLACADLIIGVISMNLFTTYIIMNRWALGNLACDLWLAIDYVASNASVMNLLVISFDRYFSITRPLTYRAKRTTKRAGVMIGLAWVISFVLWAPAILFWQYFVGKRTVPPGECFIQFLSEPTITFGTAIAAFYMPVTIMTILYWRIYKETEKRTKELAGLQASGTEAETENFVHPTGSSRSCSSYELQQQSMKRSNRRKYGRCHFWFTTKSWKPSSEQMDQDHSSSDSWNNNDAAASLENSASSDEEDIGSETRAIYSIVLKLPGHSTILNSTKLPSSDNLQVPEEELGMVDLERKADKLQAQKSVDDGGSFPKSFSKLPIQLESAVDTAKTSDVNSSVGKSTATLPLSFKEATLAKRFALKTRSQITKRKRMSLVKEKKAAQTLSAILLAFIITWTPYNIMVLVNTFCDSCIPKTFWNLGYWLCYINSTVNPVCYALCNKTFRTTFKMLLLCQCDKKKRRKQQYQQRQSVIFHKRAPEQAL

Take `Cn1cc(C(=O)C(=O)N[C@H]2CN3CCC2CC3)c2ccccc21`: the inhibition constant Ki – broadly, the equilibrium dissociation constant of an inhibitor or competing ligand from its target – in [1] was 39.8 µM; in experiment [2] it was 0.000251 µM; in experiment [3] it was over 10 µM; in [4], over 10 µM; in experiment [5], over 100 µM; in [6] it was 50.1 µM. Moreover, the Ki in experiment [7] is 50.1 µM; in [8], 10 µM; in experiment [11] it was over 100 µM. The same molecule gave a Control in [9] of 24%. Besides, it took a dose of 0.6 µg/kg to reach the 50% effect level in experiment [10] (ED50).
As for `Cn1cc(C(=O)C(=O)N[C@@H]2CN3CCC2CC3)c2ccccc21`, the inhibition constant Ki in experiment [1] is over 100 µM; in experiment [2], 0.0126 µM; in experiment [3] it was 25.1 µM; in experiment [4] it was over 100 µM; in experiment [5] it was over 100 µM; in [6] it was 31.6 µM. For the same molecule, the inhibition constant (Ki) is 50.1 µM in experiment [7], 25.1 µM in experiment [8] and over 100 µM in experiment [11]. In experiment [9], this molecule registered a Control of 33%. The 50% effect level in experiment [10] (ED50) was put at a dose of 8.5 µg/kg.
